Results on eleven compounds are retold here after patent publication US9302988B2, “Fluoromethyl-substituted pyrrole carboxamides” (GRÜNENTHAL GMBH, priority 2012, dated 2016).

The assay deals with T1, Human CaV2.2 channels (Homo sapiens, UniProt Q00975).
T1 construct: expressed in transfected cells
As to the kind of experiment: Fluorescent assay for CaV2.2 channels using potassium depolarization to induce channel opening (FLIPR, Fluo-4). It is filed as cell-based. The conditions noted are these: 3 μM test compound, 30 mM KCl, HEK293 cells stably expressing human CaV2.2; read-out: %-Inhib (CaV2.2) @3 μM @30 mM KCl. Put shortly:
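Channel block was read as the baseline-normalized peak Ca²⁺ signal (Fluo-4, 480/535 nm) after a high-KCl depolarizing addition (210 mM KCl buffer). Beforehand, compound sat 15 min at 25 °C on HEK293 cells carrying human CaV2.2, α2δ/β subunits and Kir2.3, in pH 7.4 buffer with 30 mM KCl.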

T1 sequence (Q00975 whole entry): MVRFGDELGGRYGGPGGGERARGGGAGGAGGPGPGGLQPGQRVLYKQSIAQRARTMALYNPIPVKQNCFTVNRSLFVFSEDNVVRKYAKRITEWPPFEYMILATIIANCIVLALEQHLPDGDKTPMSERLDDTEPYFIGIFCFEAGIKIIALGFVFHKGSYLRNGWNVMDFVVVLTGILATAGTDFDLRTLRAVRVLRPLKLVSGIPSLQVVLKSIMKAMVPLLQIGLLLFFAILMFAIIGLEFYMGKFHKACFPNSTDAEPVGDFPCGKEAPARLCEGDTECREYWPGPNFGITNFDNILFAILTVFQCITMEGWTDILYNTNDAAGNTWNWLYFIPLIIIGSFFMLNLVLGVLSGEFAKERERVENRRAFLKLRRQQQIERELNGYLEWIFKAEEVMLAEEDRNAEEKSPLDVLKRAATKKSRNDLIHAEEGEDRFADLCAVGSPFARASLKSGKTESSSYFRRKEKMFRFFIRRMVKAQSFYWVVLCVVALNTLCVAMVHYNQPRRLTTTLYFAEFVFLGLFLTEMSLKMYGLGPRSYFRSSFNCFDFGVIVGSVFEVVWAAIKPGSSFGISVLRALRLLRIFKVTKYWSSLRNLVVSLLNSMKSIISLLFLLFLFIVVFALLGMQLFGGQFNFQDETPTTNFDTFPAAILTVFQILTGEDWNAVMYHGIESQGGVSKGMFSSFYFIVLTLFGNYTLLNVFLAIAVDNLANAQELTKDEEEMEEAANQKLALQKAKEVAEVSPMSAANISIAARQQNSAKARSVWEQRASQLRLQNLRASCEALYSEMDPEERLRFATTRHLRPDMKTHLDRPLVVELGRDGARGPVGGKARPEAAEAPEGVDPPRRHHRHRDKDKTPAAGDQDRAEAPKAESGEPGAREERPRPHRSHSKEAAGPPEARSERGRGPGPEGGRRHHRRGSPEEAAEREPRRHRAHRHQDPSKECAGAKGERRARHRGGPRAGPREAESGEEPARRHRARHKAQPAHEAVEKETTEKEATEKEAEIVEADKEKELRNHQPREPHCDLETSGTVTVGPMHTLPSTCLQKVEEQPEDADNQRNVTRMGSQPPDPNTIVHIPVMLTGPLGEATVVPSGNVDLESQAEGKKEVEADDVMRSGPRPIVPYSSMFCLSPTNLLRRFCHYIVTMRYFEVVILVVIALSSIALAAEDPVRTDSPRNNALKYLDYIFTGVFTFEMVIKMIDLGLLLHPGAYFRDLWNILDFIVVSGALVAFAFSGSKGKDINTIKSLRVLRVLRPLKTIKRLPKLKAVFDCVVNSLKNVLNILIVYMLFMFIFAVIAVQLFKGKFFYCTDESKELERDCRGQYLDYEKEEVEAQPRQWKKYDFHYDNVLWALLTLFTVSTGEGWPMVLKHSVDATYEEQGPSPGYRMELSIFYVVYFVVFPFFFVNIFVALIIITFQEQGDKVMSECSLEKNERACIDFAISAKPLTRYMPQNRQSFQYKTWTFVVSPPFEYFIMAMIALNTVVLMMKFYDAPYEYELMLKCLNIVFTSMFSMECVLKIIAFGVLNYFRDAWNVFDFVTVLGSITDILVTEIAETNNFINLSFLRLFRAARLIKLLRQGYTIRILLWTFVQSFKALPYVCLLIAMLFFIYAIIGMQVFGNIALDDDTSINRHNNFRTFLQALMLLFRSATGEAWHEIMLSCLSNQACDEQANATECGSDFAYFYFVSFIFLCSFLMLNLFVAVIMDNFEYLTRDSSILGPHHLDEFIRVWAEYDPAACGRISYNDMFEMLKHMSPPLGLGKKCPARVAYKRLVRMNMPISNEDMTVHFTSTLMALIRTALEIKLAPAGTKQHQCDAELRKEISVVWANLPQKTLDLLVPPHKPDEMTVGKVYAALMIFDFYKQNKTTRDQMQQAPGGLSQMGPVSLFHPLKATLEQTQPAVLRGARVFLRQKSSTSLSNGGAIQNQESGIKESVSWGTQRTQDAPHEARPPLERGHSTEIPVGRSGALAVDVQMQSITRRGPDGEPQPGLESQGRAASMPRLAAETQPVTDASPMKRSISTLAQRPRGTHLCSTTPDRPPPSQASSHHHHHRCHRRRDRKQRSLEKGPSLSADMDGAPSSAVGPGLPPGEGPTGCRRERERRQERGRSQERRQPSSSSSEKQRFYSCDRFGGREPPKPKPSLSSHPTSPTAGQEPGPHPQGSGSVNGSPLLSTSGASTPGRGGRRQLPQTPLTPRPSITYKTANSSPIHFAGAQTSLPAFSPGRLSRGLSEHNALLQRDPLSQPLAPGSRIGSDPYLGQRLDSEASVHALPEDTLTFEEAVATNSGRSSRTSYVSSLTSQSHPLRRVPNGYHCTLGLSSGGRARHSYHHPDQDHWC
T1 sequence (P54289 25-1103, further chain): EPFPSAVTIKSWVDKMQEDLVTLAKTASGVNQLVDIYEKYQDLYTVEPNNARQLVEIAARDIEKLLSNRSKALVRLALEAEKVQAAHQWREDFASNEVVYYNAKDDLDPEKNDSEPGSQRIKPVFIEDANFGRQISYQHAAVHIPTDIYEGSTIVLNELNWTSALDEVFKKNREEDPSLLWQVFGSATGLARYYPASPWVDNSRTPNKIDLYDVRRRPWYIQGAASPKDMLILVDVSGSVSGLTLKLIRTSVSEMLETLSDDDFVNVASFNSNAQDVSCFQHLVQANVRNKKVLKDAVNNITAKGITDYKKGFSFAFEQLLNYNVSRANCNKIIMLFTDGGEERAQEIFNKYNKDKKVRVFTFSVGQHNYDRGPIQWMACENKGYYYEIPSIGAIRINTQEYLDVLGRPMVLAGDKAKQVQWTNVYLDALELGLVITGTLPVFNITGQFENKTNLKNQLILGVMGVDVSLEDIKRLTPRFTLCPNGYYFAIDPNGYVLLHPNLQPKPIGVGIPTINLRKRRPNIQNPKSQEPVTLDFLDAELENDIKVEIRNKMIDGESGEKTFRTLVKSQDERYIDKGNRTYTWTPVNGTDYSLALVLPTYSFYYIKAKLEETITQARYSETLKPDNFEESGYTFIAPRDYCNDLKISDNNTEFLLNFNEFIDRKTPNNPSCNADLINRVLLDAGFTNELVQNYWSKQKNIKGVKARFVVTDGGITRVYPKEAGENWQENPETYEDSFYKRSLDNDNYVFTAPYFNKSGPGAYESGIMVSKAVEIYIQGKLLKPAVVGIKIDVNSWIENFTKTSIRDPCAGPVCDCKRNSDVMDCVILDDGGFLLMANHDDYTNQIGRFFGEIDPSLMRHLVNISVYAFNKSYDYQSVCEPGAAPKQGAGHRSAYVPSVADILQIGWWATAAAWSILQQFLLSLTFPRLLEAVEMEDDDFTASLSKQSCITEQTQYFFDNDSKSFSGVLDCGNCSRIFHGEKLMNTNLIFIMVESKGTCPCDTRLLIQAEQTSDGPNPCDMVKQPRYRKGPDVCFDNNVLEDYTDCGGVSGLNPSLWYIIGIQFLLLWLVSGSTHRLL
T1 sequence (P54284 whole entry, further chain): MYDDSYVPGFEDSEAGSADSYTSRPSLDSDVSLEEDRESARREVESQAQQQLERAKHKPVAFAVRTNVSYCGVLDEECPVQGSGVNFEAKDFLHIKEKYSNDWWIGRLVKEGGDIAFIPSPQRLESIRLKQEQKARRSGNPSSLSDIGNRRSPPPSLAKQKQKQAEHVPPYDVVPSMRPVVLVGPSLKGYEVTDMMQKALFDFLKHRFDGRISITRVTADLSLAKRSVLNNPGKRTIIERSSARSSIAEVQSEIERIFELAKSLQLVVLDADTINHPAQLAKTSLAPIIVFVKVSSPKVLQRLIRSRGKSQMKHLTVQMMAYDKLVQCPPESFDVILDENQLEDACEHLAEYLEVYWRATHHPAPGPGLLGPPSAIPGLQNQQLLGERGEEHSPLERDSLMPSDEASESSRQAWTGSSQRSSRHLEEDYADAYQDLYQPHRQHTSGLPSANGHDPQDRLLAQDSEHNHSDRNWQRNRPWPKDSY

`Cc1c(-c2ccc(Cl)cc2F)c(C(=O)N(CCS(C)(=O)=O)C(C)C)n(Cc2ccccc2)c1C(F)(F)F` [SC-169, 1-Benzyl-3-(4-chloro-2-fluoro-phenyl)-N-isopropyl-4-methyl-N-(2-methylsulfonyl-ethyl)-5-(trifluoromethyl)-1H-pyrrole-2-carboxylic acid amide]: the inhibition at 3 µM is 75 to 95%.
The same measure for `Cc1c(-c2ccc(Cl)cc2)c(C(=O)N(C)C2CCS(=O)(=O)CC2)n(Cc2ccccc2)c1C(F)(F)F` [SC-131, 1-Benzyl-3-(4-chlorophenyl)-N-(1,1-dioxo-thian-4-yl)-N,4-dimethyl-5-(trifluoromethyl)-1H-pyrrole-2-carboxylic acid amide]: above 95%; for `CN(CC(C)(C)C)C(=O)c1c(-c2ccc(Cl)cc2)cc(C(F)(F)F)n1Cc1ccccc1` [SC-02, 1-Benzyl-3-(4-chlorophenyl)-N-(2,2-dimethyl-propyl)-N-methyl-5-(trifluoromethyl)-1H-pyrrole-2-carboxylic acid amide]: 75 to 95%; for `Cc1c(-c2ccc(Cl)cc2)c(C(=O)N(C)CC(C)(C)CN2CCOCC2)n(Cc2ccccc2)c1C(F)(F)F` [SC-118, 1-Benzyl-3-(4-chlorophenyl)-N-(2,2-dimethyl-3-morpholin-4-yl-propyl)-N,4-dimethyl-5-(trifluoromethyl)-1H-pyrrole-2-carboxylic acid amide]: above 95%.
For `Cc1c(-c2ccc(Cl)cc2)c(C(=O)N2CC[S+]([O-])CC2)n(Cc2ccccc2)c1C(F)(F)F` [SC-19, [1-Benzyl-3-(4-chlorophenyl)-4-methyl-5-(trifluoromethyl)-1H-pyrrol-2-yl]-(1-oxo-[1,4]thiazinan-4-yl)-methanone], the inhibition at 3 µM is above 95%.
The same measure for `Cc1c(-c2ccc(Cl)cc2)c(C(=O)N(C)CC2CCC[C@H]2O)n(Cc2ccccc2)c1C(F)(F)F` (stereo partly drawn) [SC-136, 1-Benzyl-3-(4-chlorophenyl)-N-[[(2R)-2-hydroxy-cyclopentyl]-methyl]-N,4-dimethyl-5-(trifluoromethyl)-1H-pyrrole-2-carboxylic acid amide]: above 95%; for `Cc1cc(CN(C)C(=O)c2c(-c3ccc(Cl)cc3)c(C)c(C(F)(F)F)n2Cc2ccccc2)on1` [SC-140, 1-Benzyl-3-(4-chlorophenyl)-N,4-dimethyl-N-[(3-methyl-isoxazol-5-yl)-methyl]-5-(trifluoromethyl)-1H-pyrrole-2-carboxylic acid amide]: above 95%.
For the compound `Cc1c(-c2ccc(Cl)cc2)c(C(=O)N(C)CC(C)(C)CN(C)CCN2CCCC2)n(Cc2ccccc2)c1C(F)(F)F` [SC-139, 1-Benzyl-3-(4-chlorophenyl)-N-[2,2-dimethyl-3-[methyl-(2-pyrrolidin-1-yl-ethyl)-amino]-propyl]-N,4-dimethyl-5-(trifluoromethyl)-1H-pyrrole-2-carboxylic acid amide], the inhibition at 3 µM is above 95%.
In the case of `CC1(C)CN(C(=O)c2c(-c3ccc(Cl)cc3)cc(C(F)(F)F)n2Cc2ccccc2)CCO1` [SC-75, [1-Benzyl-3-(4-chlorophenyl)-5-(trifluoromethyl)-1H-pyrrol-2-yl]-(2,2-dimethyl-morpholin-4-yl)-methanone], the inhibition at 3 µM lay within 75 to 95%.
Turning to `CN(CC(C)(C)S(C)(=O)=O)C(=O)c1c(-c2ccc(Cl)cc2)cc(C(F)(F)F)n1Cc1ccccc1` [SC-92, 1-Benzyl-3-(4-chlorophenyl)-N-methyl-N-(2-methyl-2-methylsulfonyl-propyl)-5-(trifluoromethyl)-1H-pyrrole-2-carboxylic acid amide], the inhibition at 3 µM is above 95%.
Regarding `Cc1c(-c2ccc(Cl)cc2)c(C(=O)N(C)C2CCS(=O)(=O)C2)n(Cc2ccccc2)c1C(F)(F)F` (centres unmarked) [SC-63, 1-Benzyl-3-(4-chlorophenyl)-N-(1,1-dioxo-thiolan-3-yl)-N,4-dimethyl-5-(trifluoromethyl)-1H-pyrrole-2-carboxylic acid amide], the inhibition at 3 µM is above 95%.
